Assays:
MT-2 cells = assay type: cell-based; conditions: human, 4 days
Experimental: (§1) Inhibition of HIV-induced cytopathic effect in cell culture. The MT-2 cells were grown in RPMI-1640 medium with GlutaMAX™, supplemented with 10% (v/v) heat-inactivated fetal bovine serum (both from Gibco, Invitrogen corporation, Carlsbad). The cells were maintained at 37° C. in a humidified atmosphere of 5% CO2 in air. Every 4-5 days, cells were spun down and seeded at 2×10^5 cells/ml in new cell culture flasks. HIV ([…] isolate) was obtained from Advanced Biotechnology Incorporated (Columbia, Md.). The virus stock [3,2×10^4 CCID50 (50% cell culture infective dose) per ml as determined for MT-2 cells] was stored at −70° C. until used. Stock solutions of compounds were diluted using medium directly into 96-well assay plate (Costar, Corning inc, Corning, N.Y.).
(§2) Cells were then infected with 100 CCID50 or mock-infected. The cell cultures were incubated at 37° C. in a humidified atmosphere of 5% CO2 in air. […] The percent cell viability in drug treated uninfected and infected cells was determined based on the viability of the uninfected control drug treated cells. The concentration of drug required to inhibit approximately 50% of the HIV-1 induced cytotoxicity was calculated from the plot of compound concentration verses the percent viable cells.

HIV-1 protease = HIV-1 protease (Human immunodeficiency virus type 1 group M subtype B, UniProt P04585); experiment: Fluorimetric HIV-1 protease assay; assay type: biochemical; conditions: concentration up to 25 μM; data not shown
Experimental: Fluorimetric HIV-1 protease assay. The fluorescent HIV-1 protease substrate (RE-(EDANS)-SQNYPIVQK-(DABCYL)-R) was obtained from Molecular Probes, Inc. (Eugene, Oreg.). Substrate and buffer were pre-warmed at 37° C. for at least 20 min before use. The protease (25 nM final concentration) was incubated in the manufacturer's recommended assay buffer (100 mM Na acetate, 1M NaCl, 1 mM EDTA, 1 mM DTT, 10% DMSO and 1 mg ml^−1 BSA pH 4.7) at 37° C. in the presence of 1-25 μM NSC 18806 for 10 min and then added to the warmed substrate solution (40 μM) containing the different treatments to initiate the reaction. Acetyl pepstatin (Sigma, St. Louis, Mo.) at 20 nM was used a positive HIV-1 protease inhibitor control. The total assay volume was 100 µL. Fluorescence was monitored for 30 min in a fluorescence microplate reader (FMAX, Molecular Devices, Sunnyvale, Calif.) with 355 nm excitation and 460 nm emission filters and the rate of reactions compared for the different conditions.

HIV-1 integrase [1] = target: T1, HIV-1 integrase (Human immunodeficiency virus type 1 group M subtype B, UniProt P04585); experiment: Strand transfer assay with preprocessed (19/21) DNA substrate; assay type: biochemical; conditions: In vitro IC50 Preprocessed substrate
T1 construct: Expression and purification of the recombinant HIV-1 integrase in Escherichia coli; made in house; host or cells: Escherichia coli
Experimental: (§3) Recombinant HIV integrase and oligonucleotide substrates. Expression and purification of the recombinant HIV-1 integrase in Escherichia coli were performed according to (Leh et al., 2000; Marchand et al., 2001) with addition of 10% glycerol to all buffers. The preparation of the Q148C/SSS-mutant integrase will be described elsewhere (Johnson et al., 2005). The oligonucleotide substrates, except those used for the disulfide crosslinking (FIG. 5A), were purchased from Integrated DNA Technologies, Inc. (Coraville, Iowa) and purified by polyacrylamide gel. The single-stranded oligonucleotides were 5′-end labeled with [γ^32P]-ATP (Perkin Elmer, Wellesley, M A) and T4 polynucleotide kinase (New England BioLabs, Ipswich, M A). Unincorporated nucleotide was removed using mini Quick Spin Oligo columns (Roche Diagnostics, Indianapolis, Ind.). Substrates were obtained after annealing with complementary non-labeled oligonucleotides. The thiol-modified substrate (FIG. 5A) for disulfide crosslinking assay was synthesized as essentially described by W. Santos and G. Verdine (Department of Chemistry and Chemical Biology, Harvard University, Cambridge, Mass.) (They and Verdine, 2002).
(§4) Integrase catalytic assays. Reactions were performed in 10 μl with 300 nM of recombinant IN, 20 nM of the 5′-end [^32P]-labeled oligonucleotide substrates and inhibitors at the indicated concentrations. 10% DMSO was included in controls. Reactions were incubated for 40 min at 37° C. in a buffer containing a final concentration of 25 mM MOPS, pH 7.2, 25 mM NaCl, 14.3 mM β-mercaptoethanol and 7.5 mM of divalent cations (MgCl2 or MnCl2 as indicated). Reactions were stopped by addition of 20 μl loading dye (10 mM EDTA, 98% deionized formamide, 0.025% xylene cyanol and 0.025% bromophenol blue). Reactions were heated at 95° C. for 1 min before electrophoresis in 20% polyacrylamide-7 M urea gels. Gels were dried and reaction products were visualized and quantitated with a Molecular Dynamics PhosphorImager (Sunnyvale, Calif.). Densitometric analyses were performed using ImageQuant from the Molecular Dynamics software. The concentrations at which enzyme activity was reduced by 50% (IC50), was determined using “Prism” software (GraphPad Software, San Diego, Calif.) for nonlinear regression to fit dose-response data to logistic curve models.

HIV-1IIIB = experiment: Inhibition of HIV-induced cytopathic effect in MT-2 cell culture; assay type: cell-based; conditions: MT-2 cells
Experimental: as §1, §2

HIV-1 integrase [2] = target: T1, HIV-1 integrase; experiment: Disintegration assay with Y-oligomer substrate; assay type: biochemical; conditions: for IC50: In vitro IC50 Disintegration
Experimental: as §3, §4

HIV-1 integrase [3] = target: T1, HIV-1 integrase; experiment: Integrase catalytic assay, 3′-processing (3′-P), 21 bp duplex substrate; assay type: biochemical; conditions: In vitro IC50 21 bp substrate 3′-P
Experimental: as §3, §4

HIV-1 integrase [4] = target: T1, HIV-1 integrase; experiment: Integrase binding to HIV DNA, Schiff base crosslinking assay; conditions: Mg2+
Experimental: Integrase binding to HIV DNA using the shiff-base assay. The shiff-base assay was performed as described (Mazumder and Pommier, 1995). Briefly, 300 nM recombinant IN was incubated with inhibitors (at the indicated concentration) for 15 min at 37° C. Subsequently, 20 nM of 5′-end labeled substrate containing the abasic oligonucleotide (FIG. 6A) was added for 10 min at room temperature in reaction buffer described above for integrase catalytic assays. A freshly prepared solution of sodium borohydride (0.1 M final concentration) was added for 5 min. An equal volume (10 μl) of 2×SDS-polyacrylamide gel electrophoresis buffer (Invitrogen, Carlsbad, Calif.) was added in each reaction. Reaction products were heated at 95° C. for 1 min before analysis by electrophoresis in a 12-20% polyacrylamide gels (Invitrogen, Calif., USA). Gels were dried and reaction products were quantitated using the same method as described above.

[5] = target: T2, Q148C/SSS-mutant integrase (Human immunodeficiency virus type 1 group M subtype B, UniProt P04585, C1203S/C1212S/C1427S/Q1295C); experiment: biochemical; assay type: binding, HIV-1
T2 construct: 10 μM recombinant Q148C/SSS-mutant integrase was incubated with 10 μM DNA substrate; made in house
Experimental: Briefly, 10 μM recombinant Q148C/SSS-mutant integrase was incubated with 10 μM DNA substrate (FIG. 5A) containing tethered thiols in the presence of 20 mM Tris, pH 7.4, 10% glycerol and 7.5 mM of divalent cations (MgCl2 or MnCl2 as indicated) for 20 min at 37° C. Reactions were stopped by the addition of 20 mM methylmethanethiosulfonate (capping reagent). Non-reducing gel loading buffer (100 mM Tris-HCl, pH 6.8, 4% SDS, 0.2% bromophenol blue, 20% glycerol) was added and samples were heated at 95° C. before loading onto 16% tricine gels (Invitrogen, Carlsbad, Calif.). Gels were stained with Microwave Blue according to manufacturer's recommendations (Protiga, Frederick, Md.).
DNA (20 nM) containing a [5′-^32P]-label on one strand and a thiol-modified cytosine on the other strand was added and reactions were capped with methylmethanethiosulfonate at 1 minute. Following capping, non-reducing gel loading buffer (100 mM Tris-HCl, pH 6.8, 4% SDS, 0.2% bromophenol blue, 20% glycerol) was added and samples were directly loaded on 16% tricine gels (Invitrogen, Carlsbad, Calif.). Gels were dried and reaction products were quantitated using the same way as described above.

HIV-1 integrase [6] = target: T1, HIV-1 integrase; experiment: Integrase catalytic assay, strand transfer (ST), 21 bp duplex substrate; assay type: biochemical; conditions: for IC50: In vitro IC50 21 bp substrate ST
Experimental: as §3, §4

Structure (SMILES): CC(C)c1ccc(O)c(=O)c(O)c1 [NSC 18806, β-thujaplicinol]
- concentrations with presence of toxicity (MT-2 cells): ≥ 12 µM
- inhibition of HIV-1 protease (in words) (HIV-1 protease): failed to inhibit HIV-1 protease
- IC50 (HIV-1 integrase [1]; Mg2+): 18.1 ± 6.2 µM
- IC50 (HIV-1 integrase [1]; Mn2+): 5 µM
- IC50 (HIV-1IIIB; Human immunodeficiency virus 1, MT2, 96 h, four days after infection, read-out: estimated IC50, protection of infected cells from HIV-induced cytopathic effect): ~12 µM
- activity in HIV infectivity assay (in words) (HIV-1IIIB): exhibits cytoprotective activity
- IC50 (HIV-1 integrase [2]; Mg2+): > 333 µM
- IC50 (HIV-1 integrase [2]; Mn2+): 23.8 µM
- inhibition of disintegration (in words) (HIV-1 integrase [2]; Mg2+): inability of NSC 18806 to inhibit disintegration
- inhibition of disintegration (in words) (HIV-1 integrase [2]; Mn2+): only inhibited in the presence of Mn^2+ at high drug concentration
- inhibition at 333 µM (HIV-1 integrase [2]; read-out: inhibition activity, disintegration): 5 to 20%
- IC50 (HIV-1 integrase [3]; Mg2+): 117 ± 7.1 µM
- IC50 (HIV-1 integrase [3]; Mn2+): 24.6 µM
- inhibition of Schiff base IN-DNA crosslinking (in words) (HIV-1 integrase [4]): did not block
- IC50 [5]: 32 µM
- inhibition of integrase-DNA disulfide-crosslinking (in words) ([5]; drug 1 mM, Mg2+ or Mn2+ (FIG. 5B)): metal-dependent inhibition
- IC50 for 3′-P relative to IC50 for ST (HIV-1 integrase [6]; 21 bp duplex, in the presence of either Mg2+ or Mn2+): approximately 5 fold
- IC50 (HIV-1 integrase [6]; Mg2+): 21.6 ± 3.4 µM
- IC50 (HIV-1 integrase [6]; Mn2+): 4.8 ± 2.5 µM

— patent US20100152301A1, “Treatment of Viral Infections” (GOVERNMENT OF THE US, AS REPRESENTED BY THE SECRETARY, …, priority 2005, published 2010)
